Data reported in patent US20210100777A1, “HEAT SHOCK PROTEIN (HSP) INHIBITION AND MONITORING EFFECTIVENESS THEREOF” (H. LEE MOFFITT CANCER CENTER AND RESEARCH INSTITUTE, INC., priority 2013, published 2021).

How the values were obtained:
[1] = tested on: HSP90 client and apoptosis proteins in vemurafenib-resistant melanoma cell lines; experiment: Western blotting; assay type: cell-based
Source text: Western blotting. Proteins were extracted and blotted for as described previously (Smalley et al., Br. J. Cancer 96:445-9 (2007)). […] The antibodies to IGF1R, PDGFRβ, ARAF, CRAF, phospho-AKT Ser473, total AKT, phospho-ERK, total ERK, cyclin D1, phospho-S6, total S6, phospho-BIM (Ser69), total BIM, HSP70 and MCL-1 were from Cell Signaling Technology (Beverly, Mass.). Anti-26S was purchased from Abcam (Cambridge, Mass.), and the antibody against COT was from Santa Cruz Biotechnology (Santa Cruz, Calif.).

HSPs in RPMI-8226 cells = experiment: DI-MRM relative quantification of HSPs after 17-DMAG (Example 2); assay type: cell-based, human; details: RPMI-8226, 100 nM
Protocol: Synthesis and DI MRM of Standard Peptides. Standard peptides were synthesized and characterized as described previously (Remily-Wood et al., Proteomics Clin. Appl. 5:383-96 (2011)). An automated chip-based nanoelectrospray ion source, (NanoMate100, Advion BioSciences, Ithaca, N.Y.), was mounted on a triple quadrupole mass spectrometer (TSQ Vantage, Thermo, San Jose, Calif.). […] (SEQ ID NO:17) were diluted to 1 μM in 50% aqueous ACN with 0.1% formic acid. For synthetic peptide infusion, the spray voltage was tuned between 1.5 and 1.9 kV for stable ion signal. The gas pressure was set to 0.3 psi. Data were acquired at 20 ms per transition for 2 minutes using m/z 0.002 scan widths. The quadrupole resolution values were modulated from 0.2 to 0.7.
Standard Protein DI-MRM. As described below, a dilution series of BSA digest was created in 50% aqueous acetonitrile with 0.1% formic acid spiked with five synthetic peptide standards (20 nM). In DI-MRM, the spray voltage was set to 1.6 kV, and the gas pressure was set to 0.3 psi. Peptide selection was performed using Q1=0.4; fragment ion selection was performed using Q3=0.7. Transitions (n=36) were monitored for 20 ms each with scan width set to 0.002; data were acquired for 5 minutes.
(§1) Cell Culture, Lysis, and HSP Sample Preparation for Mass Spectrometry. RPMI-8226 and 8226/LR5 cells were maintained as previously described (Bellamy et al., Cancer Res. 51:995-1002 (1991); Remily-Wood et al., Proteomics Clin. Appl. 5:383-96 (2011)). The heat shock protein 90 inhibitor, 17-desmethoxy-17-N,N-dimethylaminoethylamino-geldanamycin (17-DMAG), was dissolved in DMSO (100 μM stock). Based on prior IC50 measurements, the RPMI-8226 cells were treated with 100 nM 17-DMAG for 24 hours, and 8226/LR5 cells were treated with 50 nM 17-DMAG. Cells (n=10^6) were lysed using in aqueous 100 mM ammonium bicarbonate containing 8M urea for protein denaturation. Protein concentrations were measured by Bradford assays; consistent aliquots of total protein (380 ng) were injected for LC-MRM, and the same solutions were used for DI-MRM. Digestion, addition of SIS peptides, and mass spectrometry sample preparation were performed as described for standard proteins.
Calculation of Correction Factors to Account for Interference in DI MRM. […] To evaluate the ability to eliminate these contributions, correction factors were calculated based on LC-MRM data using the following set of equations (Equations 1 and 2): […]

HSPs in 8226/LR5 cells = experiment: LC-MRM relative quantification of HSPs after 17-DMAG (Example 2); assay type: cell-based, human; details: for CDC37 Fold Change, LC-MRM / HS90A Fold Change, LC-MRM / HS90B Fold Change, LC-MRM / HSP7C Fold Change, LC-MRM / HSP7E Fold Change, LC-MRM / HSP71 Fold Change, LC-MRM / HSP74 Fold Change, LC-MRM / HSPA5 Fold Change, LC-MRM / HSP90α Fold Change, LC-MRM: 8226/LR5, 50 nM; for CDC37 Fold Change, LC-MRM / HS90A Fold Change, LC-MRM / HS90B Fold Change, LC-MRM / HSP7C Fold Change, LC-MRM / HSP7E Fold Change, LC-MRM / HSP71 Fold Change, LC-MRM / HSP74 Fold Change, LC-MRM / HSPA5 Fold Change, LC-MRM: 24 hrs after treatment vs. control; for HSP90α Fold Change, LC-MRM: 24 hrs vs. control
Protocol: as §1
LC-MR111 Quantification. For HSP proteins in cell lysate, 184 transitions from 32 peptides (see Table 2) were monitored as previously described (Remily-Wood et al., Proteomics Clin. Appl. 5:383-96 (2011)). Both relative and absolute quantification were calculated from the sum of the peak areas for all detected transitions using Skyline (MacLean et al., Bioinformatics 26:966-8 (2010)) or the combination of MRMer (Martin et al., Mol. Cell Proteomics 7:2270-8 (2008)) and Post-MRMer (http://proteome.moffitt. org).

[2] = 24 hrs vs. control, all LC-MRM transitions, interference-corrected
[3] = 24 hrs vs. control, noise corrected, only transitions below 40% interference

CC[C@@H](C)Nc1cc(C(=O)N[C@@H]2C[C@H]3CC[C@@H](C2)N3c2ccc(C(=O)C3CC3)cn2)c(C)cc1C(N)=O [XL888, 5-((R)-sec-butylamino)-N1-((1R,3s,5S)-8-(5-(cyclopropanecarbonyl)pyridin-2-yl)-8-azabicyclo[3.2.1]octan-3-yl)-2-methylterephthalamide]
26S proteasome, Western blot ([1]; 300 nM, 48 hours): partly degrade the 26S proteasome | BIM phosphorylation at Ser69 ([1]; 300 nM, 48 hours, all cell lines tested apart from M249R): decreased BIM phosphorylation at Ser69 | client protein degradation and signaling ([1]; 300 nM, 48 hours, all cell lines with acquired BRAF inhibitor resistance): degradation of IGF1R, PDGFRβ, ARAF, CRAF and cyclin D1 and the inhibition of AKT, ERK and S6 signaling | BIM expression ([1]; 300 nM, 48 hours, entire cell line panel): increased BIM expression across the entire cell line panel | HSP70 expression, Western blot ([1]; 300 nM, 48 hours, every cell line evaluated): increases in HSP70 expression | expression of Mcl-1, Western blot ([1]; 300 nM, 48 hours, resistance through PDGFRβ, COT overexpression and two unknown mechanisms): marked decrease in the expression of Mcl-1 | COT and cyclin D1 expression ([1]; intrinsically vemurafenib-resistant RPMI7951 and WM39, respectively): degrade both COT and cyclin D1

CO[C@H]1/C=C\C=C(/C)C(=O)NC2=CC(=O)C(NCCN(C)C)=C(C[C@@H](C)C[C@H](OC)[C@H](O)[C@@H](C)/C=C(\C)[C@@H]1OC(N)=O)C2=O [17-DMAG, 17-Dimethylaminoethylamino-17-demethoxygeldanamycin]
HSP90α Fold Change, DI-MRM (HSPs in RPMI-8226 cells; 24 hrs after treatment vs. control, ALLFVPR y3-y6 (All LC-MRM Transitions)): 1.86 | CDC37 Fold Change, DI-MRM (HSPs in RPMI-8226 cells; [2]): 1.08 | HS90A Fold Change, DI-MRM (HSPs in RPMI-8226 cells; [2]): 1.86 | HS90B Fold Change, DI-MRM (HSPs in RPMI-8226 cells; [2]): 1.46 | HSP7C Fold Change, DI-MRM (HSPs in RPMI-8226 cells; [2]): 1.52 | HSP7E Fold Change, DI-MRM (HSPs in RPMI-8226 cells; [2]): 0.87 | HSP71 Fold Change, DI-MRM (HSPs in RPMI-8226 cells; [2]): 6.10 | HSP74 Fold Change, DI-MRM (HSPs in RPMI-8226 cells; [2]): 1.22 | HSPA5 Fold Change, DI-MRM (HSPs in RPMI-8226 cells; [2]): 3.43 | CDC37 Fold Change, DI-MRM (HSPs in RPMI-8226 cells; [3]): 1.20 | HS90A Fold Change, DI-MRM (HSPs in RPMI-8226 cells; [3]): 1.85 | HS90B Fold Change, DI-MRM (HSPs in RPMI-8226 cells; [3]): 1.46 | HSP7C Fold Change, DI-MRM (HSPs in RPMI-8226 cells; [3]): 1.84 | HSP7E Fold Change, DI-MRM (HSPs in RPMI-8226 cells; [3]): 0.81 | HSP71 Fold Change, DI-MRM (HSPs in RPMI-8226 cells; [3]): 6.10 | HSP74 Fold Change, DI-MRM (HSPs in RPMI-8226 cells; [3]): 1.37 | HSPA5 Fold Change, DI-MRM (HSPs in RPMI-8226 cells; [3]): 2.53 | HSP90α Fold Change, DI-MRM (HSPs in RPMI-8226 cells; 24 hrs vs. control, y3 (Least Interference)): 2.96 | HSP90α Fold Change, DI-MRM (HSPs in RPMI-8226 cells; 24 hrs vs. control, y3-y5 (DI-MRM Interference-Corrected)): 1.85 | HSP90α Fold Change, DI-MRM (HSPs in RPMI-8226 cells; 24 hrs vs. control, y3-y5 (Selected Transitions)): 1.85 | HSP90α Fold Change, DI-MRM (HSPs in RPMI-8226 cells; 24 hrs vs. control, y3-y6 (DI-MRM Interference-Corrected)): 1.87 | CDC37 Fold Change, LC-MRM (HSPs in 8226/LR5 cells; Table 6): 1.08 | HS90A Fold Change, LC-MRM (HSPs in 8226/LR5 cells; Table 6): 1.23 | HS90B Fold Change, LC-MRM (HSPs in 8226/LR5 cells; Table 6): 1.28 | HSP7C Fold Change, LC-MRM (HSPs in 8226/LR5 cells; Table 6): 1.56 | HSP7E Fold Change, LC-MRM (HSPs in 8226/LR5 cells; Table 6): 0.99 | HSP71 Fold Change, LC-MRM (HSPs in 8226/LR5 cells; Table 6): 3.54 | HSP74 Fold Change, LC-MRM (HSPs in 8226/LR5 cells; Table 6): 1.34 | HSPA5 Fold Change, LC-MRM (HSPs in 8226/LR5 cells; Table 6): 1.53 | CDC37 Fold Change, LC-MRM (HSPs in 8226/LR5 cells; Table 7): 1.08 | HS90A Fold Change, LC-MRM (HSPs in 8226/LR5 cells; Table 7): 1.23 | HS90B Fold Change, LC-MRM (HSPs in 8226/LR5 cells; Table 7): 1.28 | HSP7C Fold Change, LC-MRM (HSPs in 8226/LR5 cells; Table 7): 1.56 | HSP7E Fold Change, LC-MRM (HSPs in 8226/LR5 cells; Table 7): 0.99 | HSP71 Fold Change, LC-MRM (HSPs in 8226/LR5 cells; Table 7): 3.54 | HSP74 Fold Change, LC-MRM (HSPs in 8226/LR5 cells; Table 7): 1.34 | HSPA5 Fold Change, LC-MRM (HSPs in 8226/LR5 cells; Table 7): 1.53 | HSP90α Fold Change, LC-MRM (HSPs in 8226/LR5 cells; y3 (Least Interference)): 1.26 | HSP90α Fold Change, LC-MRM (HSPs in 8226/LR5 cells; y3-y5 (DI-MRM Interference-Corrected)): 1.23 | HSP90α Fold Change, LC-MRM (HSPs in 8226/LR5 cells; y3-y5 (Selected Transitions)): 1.23 | HSP90α Fold Change, LC-MRM (HSPs in 8226/LR5 cells; y3-y6 (DI-MRM Interference-Corrected)): 1.23 | HSP90α expression increase, LC-MRM (HSPs in 8226/LR5 cells; 8226/LR5, 24 hours after treatment, same for y3-y6, y3-y5 or just y3): ~1.2 fold
